Values of other authors as cited in US7862843B2 (priority 2004, dated 2011).

What was measured:
prions [1] = system: prions
prions [2] = system: prions; remark: listed apart in the source

SMILES | Inactivating the infectivity of prions (prions [1]) | Infectivity lost (prions [2]; 1,000 ppm available chlorine, 4-16 hour exposure) | Inactivation of prions on surfaces (prions [2]; full strength, 20,000-50,000 ppm)
CCO [ethanol] | ineffective |  | 
[Na+].[O-]Cl [hypochlorite, sodium hypochlorite] |  | 10^4-10^5 units of infectivity | effective
O=C1CCO1 [beta-propiolactone] | ineffective |  | 
C1CO1 [ethylene oxide] | ineffective |  | 
CC(C)=O [acetone] | ineffective |  | 
C=O [formalin] | ineffective |  | 
